{
  "source": "patent US20240317762A1",
  "about": "“PHTHALAZINONE-BASED PARP-1 INHIBITORS” (Oregon Health & Science University, priority 2021, published 2024)",
  "key": {"[1]": {"molecular_target": "T1, PARP-1 (Homo sapiens, UniProt P09874)", "T1 sequence (P09874 whole entry)": "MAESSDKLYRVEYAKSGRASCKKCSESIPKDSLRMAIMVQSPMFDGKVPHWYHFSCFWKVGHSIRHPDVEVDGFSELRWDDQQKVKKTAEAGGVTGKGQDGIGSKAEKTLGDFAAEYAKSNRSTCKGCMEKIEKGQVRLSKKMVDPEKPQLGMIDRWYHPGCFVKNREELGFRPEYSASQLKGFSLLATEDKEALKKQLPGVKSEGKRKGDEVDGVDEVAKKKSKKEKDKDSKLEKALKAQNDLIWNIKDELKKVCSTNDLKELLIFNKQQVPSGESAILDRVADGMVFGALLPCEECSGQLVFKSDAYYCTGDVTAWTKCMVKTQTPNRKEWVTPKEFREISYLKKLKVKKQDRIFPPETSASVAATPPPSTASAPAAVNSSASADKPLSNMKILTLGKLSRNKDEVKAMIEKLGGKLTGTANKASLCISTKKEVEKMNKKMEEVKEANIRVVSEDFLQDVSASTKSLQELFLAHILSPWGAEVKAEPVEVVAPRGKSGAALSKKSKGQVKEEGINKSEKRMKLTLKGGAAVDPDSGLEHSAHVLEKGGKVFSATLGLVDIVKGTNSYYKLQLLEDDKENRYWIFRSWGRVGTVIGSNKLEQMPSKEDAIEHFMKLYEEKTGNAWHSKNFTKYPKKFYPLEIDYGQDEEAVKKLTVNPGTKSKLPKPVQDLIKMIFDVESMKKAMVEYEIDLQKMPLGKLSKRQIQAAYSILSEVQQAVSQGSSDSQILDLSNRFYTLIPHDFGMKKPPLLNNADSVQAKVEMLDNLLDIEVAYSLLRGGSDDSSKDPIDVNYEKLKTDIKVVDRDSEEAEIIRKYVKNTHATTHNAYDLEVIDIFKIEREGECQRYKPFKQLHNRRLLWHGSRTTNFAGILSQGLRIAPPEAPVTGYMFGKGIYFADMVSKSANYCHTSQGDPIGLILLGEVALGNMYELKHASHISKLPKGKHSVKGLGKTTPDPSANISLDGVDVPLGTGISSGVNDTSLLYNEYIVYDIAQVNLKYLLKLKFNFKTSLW", "experiment": "in vitro fluorescence polarization DNA competition assay", "details": "25 μM compound; PARP-1 40 nM; nicked dumbbell DNA probe 20 nM", "text": "The full-length WT PARP-1 protein used in these assays was purified as described previously (30)."}, "[2]": {"molecular_target": "T2, D770A PARP-1 (Homo sapiens, UniProt P09874, D770A)", "T2 sequence (P09874 whole entry D770A, the tested form may be a part)": "as the sequence (P09874 whole entry) above, with D770A counted along it", "experiment": "fluorescence polarization DNA competition and affinity assays, D770A mutant", "type": "binding", "protocol": "FIG. 4B) Helical domain (pink cartoon) movement observed during the simulation, the red arrows indicate length and direction of movement. FIG. 4C) The residue-residue distance observed between the Ca atoms R878-D770 and Y889-V758, the increased distance sampling corresponds to the helical domain movement. FIG. 4D) PARP-1 WT, D770A, or R878A (40 nM) was incubated with a dumbbell DNA probe carrying an internal FAM group and a central nick at 20 nM with or without compound (25 μM) for 30 minutes. An unlabeled competitor was added and the decrease in fluorescence polarization was measured across time. FIG. 4E) The Kd of PARP-1 WT, D770A, or R878A for a DNA dumbbell probe containing a central nick (5 nM) was measured in a fluorescence polarization assay with and without inhibitor (5 μM). Error bars represent Standard Error of the Mean (SEM) (n=3)."}, "[3]": {"tested_on": "HEK 293T cells", "experiment": "analysis of cell cycle (DAPI, flow cytometry)", "experimental": "After the indicated treatments, cells were washed twice with 1× PBS, trypsinized off of the plate, and washed an additional 2 times with 1×PBS. Cells were then permeabilized using 70% cold ethanol while vortexing before incubating for 30 min at 4° C. Cells were then washed three times with 1×PBS and counted using a hemocytometer to create a final pellet of 1×10^6 cells in for each inhibitor condition. 500 μl of DAPI solution (1 μg/ml DAPI, 0.1% Triton X-100 in PBS) was added to each cell pellet and incubated on ice for 30 min before being analyzed by flow cytometry using a BD Canto II. All data was analyzed on FlowJo software, gating for 20,000 singlet events. Manual cell cycle gates were set onto the DMSO control data using Watson modeling as reference. These gates were applied to all treatment conditions to obtain quantitative analysis.\nError bars represent SEM. […] Caspase-Glo 3/7 reagent was added to each well and luminescence was read after 30 minutes. […] Error bars represent SEM. […] Cell cycle was analyzed by flow cytometry (20,000 singlet events) and cell cycle statistics were calculated in FlowJo software against DMSO Watson modeling (n=3). FIG. 3F) DNA synthesis was measured using EdU incorporation. […] EdU incorporation was labelled using TAMRA azide click-chemistry and imaged at 20×. Mean intensity of TAMRA signal within DAPI masks analyzed using Zen software (n>3900 cells over 2 replicates). Values are normalized to the average DMSO control within each replicate. Error bars represent SEM. Statistical significance calculated via one-way ANOVA with Tukey's multiple comparisons test (p<0.05)."}, "[4]": {"molecular_target": "R878A PARP-1 (Homo sapiens, UniProt P09874, R878A)", "sequence (P09874 whole entry R878A)": "as the sequence (P09874 whole entry) above, with R878A counted along it", "experiment": "catalytic activity of PARP-1 mutant expressed in HEK 293 cells, R878A", "type": "biochemical", "details": "3 μM AZ0108"}, "[5]": {"molecular_target": "T2, D770A PARP-1", "experiment": "catalytic activity of PARP-1 mutant expressed in HEK 293 cells, D770A", "type": "biochemical", "details": "3 μM AZ0108"}, "[6]": {"tested_on": "HEK 293T cells", "experiment": "cell proliferation (MTT) assay", "type": "cell-based, human", "protocol": "HEK 293T or HEK 293 PARP-1 KO cells were seeded in a 96 well plate at 1000-2000 cells per well. Following an overnight incubation, MTT reagent, 3-(4,5-dimethylthiazol-2-yl)-2,5-diphenyltetrazolium bromide, or a dosage curve of indicated inhibitor was added to each well in quadruplicate. Following a 3-hour incubation at 37° C., wells containing MTT reagent, were aspirated and lysed with 100 μl DMSO. These wells acting as a no growth control were collected, saved @ −20° C., and replaced with 100 μl water. The plate was placed back into the incubator for a total of 72 hours of inhibitor treatment prior to MTT reagent being added for a final time. Following a 3 hour incubation with the reagent, wells were aspirated, and 100 μl DMSO were added to each well, while the no growth control sample was added back to the plate. Absorbance was read on a SpectraMaxi3 plate reader (Molecular Devices). Percent growth was calculated for analysis. Statistical significance was assigned using individual t-tests between conditions for each inhibitor dosage.\n(§1) Error bars represent SEM. […] Error bars represent SEM. […] Error bars represent SEM."}, "[7]": {"tested_on": "caspase-3/7 activity in HEK 293 cells", "experiment": "cell apoptosis assay (Caspase-Glo 3/7)", "type": "cell-based, human", "details": "1 μM, 72 hours", "protocol": "HEK 293 or HEK 293 PARP-1 KO cells were seeded in a 96 well plate at 1000-2000 cells per well, a media only “blank” was also included. Following an overnight incubation, cells were treated with 1 μM of indicated inhibitors. “Blank” wells were treated with DMSO. Following a 72 hour inhibitor treatment, the Caspase-Glo 3/7 Assay was completed following the manufacturer instructions (Promega, #G8091). Luminescence was read on a SpectraMax i3 plate reader (Molecular Devices).\nas §1"}, "[8]": {"molecular_target": "T1, PARP-1", "experiment": "PARP-1 auto-PARylation activity assay in cells", "type": "cell-based", "protocol": "Cells were washed with PBS, and lysed in RIPA buffer (50 mM Tris-HCl [pH 8.0], 150 mM NaCl, 0.1% SDS, 1% Triton X-100, 1× cOmplete™ protease inhibitors (Roche), and 1 μM Veliparib). […] Following quantification, 4× Laemmli sample buffer with 5% β-mercaptoethanol was added to 25-50 μg of protein.\nMembrane blots were blocked with 5% milk-PBST for 1 h at RT, followed by incubation with a rabbit pan-ADP-ribose binding reagent (Cell Signaling), a rabbit PARP-1 antibody (Bethyl Laboratories), or a mouse b-actin antibody (Santa Cruz Biotechnology) for 2 h at RT, followed by incubation with HRP-conjugated secondary antibodies. […] Blots were imaged for chemiluminescent signal on a ChemiDoc MP system (BioRad). Statistical significance was established through multiple unpaired t-tests with nonlinear regression fit analysis.\nFIGS. 5A-5F. […] An unlabeled competitor was added and the decrease in fluorescence polarization was measured across time. […] Error bars represent SEM. […] Error bars represent SEM. […] Cells were subsequently lysed using RIPA buffer, run out on SDS-PAGE, and probed for ADPr (Cell Signaling) and PARP-1 (Bethyl Laboratories). FIG. 5F) Quantification of western blot images. ADPr values are normalized to PARP-1 within each replicate and plotted as percentage compared to DMSO. Error bars indicate SEM (n=3)."}},
  "note": "“And” between values parts separate entries of the source, which are not always exact repeats. Equal values may be shown once.",
  "data": [
    {"substance": "(S)-4-(difluoro(3-(6-methyl-3-(trifluoromethyl)-5,6,7,8-tetrahydro-[1,2,4]triazolo[4,3-a]pyrazine-7-carbonyl)phenyl)methyl)phthalazin-1(2H)-one [AZ0108]", "values": [
      {"measurement": "exchange of the PARP-1:labled DNA complex with an unlabeled DNA competitor", "setting": "[1]", "result": "substantially reduced"},
      {"measurement": "D770A PARP-1's affinity for DNA", "setting": "[2]; 5 μM inhibitor", "result": "nor did it change"},
      {"measurement": "exchange of the D770A PARP-1:labled DNA with unlabeled DNA", "setting": "[2]; 25 μM compound", "result": "did not impact"},
      {"measurement": "G1", "setting": "[3]; DAPI intensity, 18 hours", "result": 9.31, "unit": "%"},
      {"measurement": "G2", "setting": "[3]; DAPI intensity, 18 hours", "result": 9.65, "unit": "%"},
      {"measurement": "S", "setting": "[3]; DAPI intensity, 18 hours", "result": 77.4, "unit": "%"},
      {"measurement": "effect on cell cycle", "setting": "[3]; FACS, DAPI fluorescence", "result": "arrested HEK 293 cells in S-phase"},
      {"measurement": "inhibition of R878A PARP-1 activity", "setting": "[4]", "result": "inhibited"},
      {"measurement": "inhibition of D770A PARP-1 activity", "setting": "[5]", "result": "inhibited"},
      {"measurement": "EC50", "setting": "[6]; MTT, 72 h, read-out: EC50 cell growth", "result": "0.03 µM and 0.0297 µM"},
      {"measurement": "right-shift of the EC50 value for AZ0108 on cell growth", "setting": "[6]; dual-treated with olaparib", "result": 10, "unit": "fold"},
      {"measurement": "reduction of caspase-3/7 activity", "setting": "[7]", "result": 75, "unit": "%"},
      {"measurement": "EC50", "setting": "[8]; 30 min inhibitor, then PARG inhibitor PDD00017273, read-out: EC50 inhibiting PARP-1 PARylation in HEK 293 cells", "result": 0.0425, "unit": "µM"},
      {"measurement": "IC50", "setting": "[8]; FIG. 5F, nonlinear regression, read-out: IC50 of dose curves, quantification of western blot (ADPr normalized to PARP-1)", "result": 0.0425, "unit": "µM"}
    ]}
  ]
}
